The source of these data is publication PMC4579270, “Identification and Characterization of an Irreversible Inhibitor of CDK2” (Chemistry & Biology, 2015).

Experiment [1] concerns phosphorylation of Rb at Thr821 in SKUT-1B cells. The experiment can be described thus: Inhibition of Rb phosphorylation in cells (western blot). The experiment is classed as cell-based. The following applies: Homo sapiens, Skut1B, 1 hr exposure. The protocol:
The cellular potency of NU6300 was examined by measuring the inhibition of Rb phosphorylation following exposure of SKUT-1B cells to the inhibitor for 1 hr. Pre-incubation with 50 μM NU6300 inhibited phosphorylation of Rb at […], a known CDK2 phosphorylation site, by 43%. […] This difference just reached statistical significance (p = 0.04). […] Representative of three different experiments. […] Protein expression levels of phospho-Rb ([…]) were normalized to the levels of total Rb in respective samples using densitometry. Relative protein expression levels are presented as percentage of inhibition of phosphorylation of Rb ([…]) compared with the control cells for each time point. Error bars represent the mean value and SD from three independent experiments. Statistical analysis was performed using the unpaired Student's t test, one-tailed. Western blot analysis was carried out as described previously ([Thomas et al., 2011]) using rabbit anti-[…] phospho-Rb antibody (Invitrogen) or mouse antihuman Rb antibody (BD Pharmingen) to detect phosphorylated and total retinoblastoma protein, respectively. Sample preparation is described in Supplemental Experimental Procedures. page 14: formate) before cryo-coolling. Data processing was carried out using programs of the CCP4 suite (CCP4, 1994). The structure of NU6300 bound to CDK2/cyclin A was solved by molecular replacement using Phaser (McCoy et al., 2007), using as the search model a high-resolution structure of a recruitment peptide bound to CDK2/cyclin A ((Cheng et al., 2006) PDB code 2CCH). A single clear solution was found with an inhibitor bound to each of the two copies of the binary complex in the asymmetric unit. This solution was then subjected to rigid body refinement in REFMAC (Murshudov et al., 1997), to reveal unambiguous electron density in the CDK2 ATP-binding site, consistent with the expected shape of the inhibitor. A model of NU6300 was created using Coot (Emsley et al., 2010). The inhibitor atoms were kept in all subsequent models during refinement carried out by additional rounds of manual rebuilding in Coot and restrained refinement in REFMAC5, including TLS refinement. Towards the end of refinement, waters were added using the Coot water picking utility and manually verified. Western blotting SKUT-1B cells (ATCC, Manassas, USA) were grown in MEM medium supplemented with non-essential amino acids, L-Glutamine, sodium pyruvate and 10% (v/v) foetal calf serum (Sigma, UK). […] Cells were harvested at different time points after the washout and lysed by adding PhosphoSafe extraction reagent (Merck, UK) containing protease inhibitor cocktail (Roche, UK) at the manufacturer's recommended dilution. The harvested cell suspension was placed in an eppendorf tube on ice, centrifuged at 13,000x g for 5 min, and the supernatant (cell lysate) removed for analysis. Subsequent western blot analysis was carried out as described in (Thomas et al., 2011) using rabbit anti-[…] phospho-Rb antibody (Invitrogen, Paisley, UK Cat No. 44-[…]) or mouse anti-human Rb antibody (BD Pharmingen, Oxford, UK Cat No. 554136) to detect phosphorylated and total retinoblastoma protein, respectively.
A general note: In western blotting, separated proteins are transferred to a membrane and probed.

Another experiment concerns the target IRAK1 (Homo sapiens, UniProt P51617). The experiment can be described thus: Dundee kinase screen re-test (standard format and 4 hour pre-incubation). To be noted: IRAK1, 0.5µM. The experiment is classed as biochemical. The procedure:
(§1) Prior to determining its cellular activity, we carried out a screen to assess its selectivity against a panel of 131 protein kinases under conditions that would not distinguish between a reversible or irreversible mode of action. […] These 13 kinases and 29 additional kinases, selected for their known sensitivity to other inhibitors within the purine series, were then tested in a modified screening format in which the assay was repeated following a 4-hr pre-incubation (Table S3B). […] However, conformational flexibility around the active site may promote such an interaction with a residue from another part of the structure ([Martin et al., 2012]).
(§2) Table S3, Related to Figure 4. NCL-0006300 protein kinase selectivity. (A) NU6300 was tested at a single concentration of 1µM against 131 protein kinases present in a Dundee protein kinase screen (Bain et al., 2007). Values given are % activity remaining and are the average of duplicate measurements: 0-25% (red), 26-50% (yellow), 51-80% (black) and above 81% (green). The kinase domain sequences (as defined by UniProt) of […]
(§3) have a lysine residue at a position close to CDK2 Lys88 or Lys89. However, in the structure of tyrosine-protein kinase BTK (PDB ID: 3GEN) the residue equivalent to CDK2 Asp86 is Cys481 and therefore there is the potential for a covalent adduct to be formed through this side chain. Ephrin type-B receptor 3 (UniProt entry P54753) also encodes a cysteine residue (Cys717) that by sequence alignment would be predicted to be close to the CDK2 lysine pair. (B) Selected kinases were re-tested in the Dundee kinase screen against NU6300 at a single concentration of 0.5 µM both in the standard assay format and following a 4 hour pre-incubation in the presence of NU6300. Kinases which have very low activity after the 4 hour incubation so that results might not be wholly reliable are boxed in salmon. Kinases where the activity after a 4 hour pre-incubation is < 50% that in the standard assay format are highlighted in red.

For the next experiment, the target named is Aurora B (Homo sapiens, UniProt Q96GD4). The experiment is described as above. The experiment is classed as biochemical. The protocol: as §1, §2, §3
Sequence of Aurora B (Q96GD4 whole entry): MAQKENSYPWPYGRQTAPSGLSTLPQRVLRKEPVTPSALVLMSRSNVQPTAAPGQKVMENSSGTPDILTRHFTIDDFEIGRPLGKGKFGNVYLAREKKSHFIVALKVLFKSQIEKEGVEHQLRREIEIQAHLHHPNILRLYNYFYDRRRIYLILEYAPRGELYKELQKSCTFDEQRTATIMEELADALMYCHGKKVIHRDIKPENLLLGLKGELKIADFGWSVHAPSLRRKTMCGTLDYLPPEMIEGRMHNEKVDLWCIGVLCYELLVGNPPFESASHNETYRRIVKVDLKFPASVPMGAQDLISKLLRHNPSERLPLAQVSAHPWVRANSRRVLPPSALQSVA
Another experiment addresses MARK1 (Homo sapiens, UniProt Q9P0L2). Described as above. Format: biochemical. To be noted: MARK1, 0.5µM. The protocol:
as §1, §2, §3

A further experiment has as its target PRK2 (Homo sapiens, UniProt Q16513). The description is as above. The experiment is classed as biochemical. To be noted: PRK2, 0.5µM. The protocol:
as §1, §2, §3

The subject of another experiment is AMPK (hum). Described as above. Format: biochemical, human. The protocol:
as §1
Table S3, Related to Figure 4. NCL-0006300 protein kinase selectivity. […]
Dundee protein kinase screen (Bain et al., 2007). […]
(B) Selected kinases were re-tested in the Dundee kinase screen against NU6300 at a single concentration of 0.5 µM both in the standard assay format and following a 4 hour pre-incubation in the presence of NU6300. Kinases which have very low activity after the 4 hour incubation so that results might not be wholly reliable are boxed in salmon. Kinases where the activity after a 4 hour pre-incubation is < 50% that in the standard assay format are highlighted in red.

The mark [2] stands for this setting: 4hr RT preincubation, read-out: %Remaining activity at 0.5µM NU6300 - 4hr RT preincubation.
Setting [3] is: usual format, read-out: %Remaining activity at 0.5µM NU6300 - Usual assay format.

Where two headings read alike, the source gives them in different places.

Sequence of MARK1 (Q9P0L2 whole entry): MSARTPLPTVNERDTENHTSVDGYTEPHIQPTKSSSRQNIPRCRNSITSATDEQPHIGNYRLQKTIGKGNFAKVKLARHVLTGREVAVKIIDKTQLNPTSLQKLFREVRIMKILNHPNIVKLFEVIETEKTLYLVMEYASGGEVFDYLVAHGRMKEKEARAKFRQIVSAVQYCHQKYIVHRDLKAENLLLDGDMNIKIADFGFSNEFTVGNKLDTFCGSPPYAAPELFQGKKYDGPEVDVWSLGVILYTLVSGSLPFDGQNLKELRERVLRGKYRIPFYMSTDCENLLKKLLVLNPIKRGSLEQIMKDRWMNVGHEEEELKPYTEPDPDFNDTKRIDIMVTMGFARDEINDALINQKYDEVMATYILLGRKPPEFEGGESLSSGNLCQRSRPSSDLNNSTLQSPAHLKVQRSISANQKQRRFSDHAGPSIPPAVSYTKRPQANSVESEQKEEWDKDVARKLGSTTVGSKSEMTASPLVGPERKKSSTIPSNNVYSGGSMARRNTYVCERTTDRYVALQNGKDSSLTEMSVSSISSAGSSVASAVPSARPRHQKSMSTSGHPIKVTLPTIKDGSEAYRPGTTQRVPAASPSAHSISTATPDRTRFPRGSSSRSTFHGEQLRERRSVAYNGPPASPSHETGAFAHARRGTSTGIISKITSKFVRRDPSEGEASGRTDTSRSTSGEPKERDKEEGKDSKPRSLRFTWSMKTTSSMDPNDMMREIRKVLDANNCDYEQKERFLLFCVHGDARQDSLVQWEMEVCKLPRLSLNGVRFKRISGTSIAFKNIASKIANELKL
Sequence of IRAK1 (P51617 whole entry): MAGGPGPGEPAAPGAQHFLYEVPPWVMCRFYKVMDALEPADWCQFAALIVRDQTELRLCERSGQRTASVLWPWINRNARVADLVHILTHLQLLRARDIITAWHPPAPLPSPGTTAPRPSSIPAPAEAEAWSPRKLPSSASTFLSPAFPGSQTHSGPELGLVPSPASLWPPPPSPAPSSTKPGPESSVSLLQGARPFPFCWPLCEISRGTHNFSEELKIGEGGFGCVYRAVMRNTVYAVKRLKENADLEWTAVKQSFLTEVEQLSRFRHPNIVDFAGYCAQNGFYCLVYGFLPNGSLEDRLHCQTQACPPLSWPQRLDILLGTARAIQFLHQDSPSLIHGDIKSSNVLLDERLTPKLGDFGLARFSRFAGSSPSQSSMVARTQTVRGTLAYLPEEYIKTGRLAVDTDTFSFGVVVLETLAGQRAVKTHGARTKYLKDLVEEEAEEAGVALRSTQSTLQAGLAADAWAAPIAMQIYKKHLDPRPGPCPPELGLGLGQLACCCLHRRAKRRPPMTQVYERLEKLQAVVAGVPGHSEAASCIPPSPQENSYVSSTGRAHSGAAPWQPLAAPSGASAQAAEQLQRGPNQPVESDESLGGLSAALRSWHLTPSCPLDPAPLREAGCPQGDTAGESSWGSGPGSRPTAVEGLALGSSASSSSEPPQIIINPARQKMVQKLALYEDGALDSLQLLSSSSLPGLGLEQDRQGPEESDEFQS
Sequence of PRK2 (Q16513 whole entry): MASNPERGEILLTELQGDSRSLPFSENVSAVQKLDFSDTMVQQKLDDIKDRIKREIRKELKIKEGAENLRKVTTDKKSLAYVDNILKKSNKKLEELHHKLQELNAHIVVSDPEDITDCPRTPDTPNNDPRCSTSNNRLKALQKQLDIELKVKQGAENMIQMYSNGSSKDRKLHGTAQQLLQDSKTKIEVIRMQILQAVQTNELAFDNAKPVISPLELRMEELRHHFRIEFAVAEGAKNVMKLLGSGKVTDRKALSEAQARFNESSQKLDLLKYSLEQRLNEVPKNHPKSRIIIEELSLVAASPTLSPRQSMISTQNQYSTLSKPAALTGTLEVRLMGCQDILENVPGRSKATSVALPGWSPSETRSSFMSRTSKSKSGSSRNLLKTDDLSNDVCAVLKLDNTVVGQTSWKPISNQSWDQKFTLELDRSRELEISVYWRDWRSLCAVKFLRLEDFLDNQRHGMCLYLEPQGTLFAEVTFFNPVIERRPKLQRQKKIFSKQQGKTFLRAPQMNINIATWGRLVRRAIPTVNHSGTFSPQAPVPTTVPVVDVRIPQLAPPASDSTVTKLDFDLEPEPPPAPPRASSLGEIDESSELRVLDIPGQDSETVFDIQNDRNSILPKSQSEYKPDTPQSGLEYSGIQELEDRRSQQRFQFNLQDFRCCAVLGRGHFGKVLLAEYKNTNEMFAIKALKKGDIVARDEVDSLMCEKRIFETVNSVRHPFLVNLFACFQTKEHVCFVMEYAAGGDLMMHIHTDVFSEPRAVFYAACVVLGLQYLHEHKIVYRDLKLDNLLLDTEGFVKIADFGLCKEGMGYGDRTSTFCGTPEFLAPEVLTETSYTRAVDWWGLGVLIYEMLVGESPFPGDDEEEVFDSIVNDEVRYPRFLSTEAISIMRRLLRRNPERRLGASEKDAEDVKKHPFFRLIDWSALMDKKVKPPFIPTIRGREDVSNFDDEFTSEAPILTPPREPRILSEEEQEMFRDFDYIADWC

A word on the inhibition: it is the drop in the measured response relative to a control, in per cent. The remaining activity is the activity still measured, relative to the control. Take `C=CS(=O)(=O)c1ccc(Nc2nc(OCC3CCCCC3)c3nc[nH]c3n2)cc1` [NU6300, 6-(cyclohexylmethoxy)-N-(4-(vinylsulfonyl)phenyl)-9H-purin-2-amine]: the inhibition at 50 µM came to 43% in experiment [1] (before washout, read-out: inhibition of phosphorylation of Rb at Thr821) and 33% in experiment [1] (then 1-hr washout in drug-free media, read-out: inhibition of phosphorylation of Rb at Thr821 after washout). Further, the remaining activity at 0.5 µM was 38% at IRAK1 (setting [2]); 64% on IRAK1 (setting [3]); 87% on Aurora B (setting [2]); 43% at Aurora B (setting [3]); 38% on MARK1 (setting [2]); 37% at MARK1 (setting [3]). The remaining activity at 0.5 µM at PRK2 (setting [2]) was 84%; at PRK2 (setting [3]), 65%. Besides, the “%Remaining activity at 0.5µM NU6300 - 4hr RT preincubation” value with AMPK (hum) (4hr RT preincubation) is recorded as 73%. Also, the “%Remaining activity at 0.5µM NU6300 - Usual assay format” value in the experiment on AMPK (hum) (usual format) was found to be 70%.
